System: CCL7, Gr-1+ neutrophils
Assay: Immunohistochemical staining of CCL7 and Gr-1 in lung sections of LPS challenged mice
Type: in vivo
Conditions: 5 mg/kg 30 min after LPS; lungs fixed after 3 h
Description: FIG. 16. Mice were challenged with 125 μg/kg LPS (i.n.) and whole lungs inflated and fixed after 3 h. Immunohistochemical staining of CCL7 (a, b an c) or Gr-1 (d, e and f) was compared between saline treated controls and LPS challenged mice with or without treatment with the PAR1 antagonist RWJ-58259 (5 mg/kg) dosed therapeutically after 30 min. [AEW]. Endothelial-epithelial barrier disruption was measured by ELISA as the amount of serum albumin in BAL fluid from mice three hours after LPS (125 μg/kg i.n.) challenge (g) or S. pneumoniae challenge (h) with and without the PAR1 antagonist RWJ-58259 (5 mg/kg) dosed therapeutically i.p. after 30 min.
The observation that neutrophil migration downstream of PAR1 activation was mediated by the non-classical neutrophil chemokine, CCL7, was unexpected. In order to determine the cellular source of CCL7 the immunolocalization of CCL7 and Gr-1+ neutrophils in serial lung sections from saline treated and LPS-challenged mice was examined. In saline treated control lung, there was weak CCL7 staining which was mainly restricted to the bronchial epithelium (FIG. 16a). […] Only weak immunolocalization was detected in the alveolar epithelium. […] Gr-1 specific immunostaining was next performed in order to detect neutrophils in serial lung sections. No Gr-1 staining could be detected in saline treated controls (FIG. 16d). […]

In the case of `NCC[C@H](NC(=O)[C@H](Cc1ccc(F)c(F)c1)NC(=O)Nc1ccc2c(CN3CCCC3)nn(Cc3c(Cl)cccc3Cl)c2c1)C(=O)NCc1ccccc1` [RWJ-58259], the “Gr-1 immunoreactivity in lung sections” value is reported as “decreased” and the “LPS-induced CCL7 immunoreactivity in lung sections” value is reported as “reduced”.

From patent US20150079105A1, “TREATMENT OF ACUTE INFLAMMATION IN THE RESPIRATORY TRACT” (UCL Business PLC, priority 2012, published 2015)
